Results: ChEMBL document CHEMBL5584290, “Novel flexible biphenyl PfDHFR inhibitors with improved antimalarial activity” (RSC Med Chem, 2024)

Legend:
in vitro [1] = settings: human, liver microsomes
Description: Intrinsic clearance in human liver microsomes incubated up to 60 mins in presence of NADPH by LC-MS/MS analysis

Plasmodium falciparum [2] = test: Antimalarial activity against PYR-sensitive Plasmodium falciparum TM4/8.2 expressing wild type DHFR by [3H]-hypoxanthine incorporation assay; settings: TM4/8.2, 3 h
Plasmodium falciparum [3] = test: Antimalarial activity against PYR-resistant Plasmodium falciparum V1/S expressing DHFR N51I/C59R/S108N/I164L quadruple mutant by [3H]-hypoxanthine incorporation assay
[4] = Cytotoxicity against African green monkey Vero cells assessed as reduction in cell viability
[5] = Inhibition of Plasmodium falciparum DHFR N51I/C59R/S108N/I164L quadruple mutant
in vitro [6] = settings: rat, liver microsomes
Description: Intrinsic clearance in rat liver microsomes incubated up to 60 mins in presence of NADPH by LC-MS/MS analysis

[7] = Inhibition of wild type Plasmodium falciparum DHFR N51I/C59R/S108N/I164L quadruple mutant expressed in Escherichia coli BL21(DE3) pLysS cells assessed as inhibition constant using DHF as substrate measured for 80 sec in presence of NADPH
Plasmodium falciparum [8] = test: Antimalarial activity against PYR-resistant Plasmodium falciparum V1/S expressing DHFR N51I/C59R/S108N/I164L quadruple mutant infected in human erythrocytes incubated for 24 hrs by [3H]-hypoxanthine incorporation assay
[9] = molecular target: Bifunctional dihydrofolate reductase-thymidylate synthase (Plasmodium falciparum K1, UniProt P13922); test: Inhibition of wild type Plasmodium falciparum DHFR expressed in Escherichia coli BL21(DE3) pLysS cells assessed as inhibition constant using DHF as substrate measured for 80 sec in presence of NADPH
[10] = Selectivity index, ratio of IC50 for cytotoxicity against African green monkey Vero cells to IC50 for antimalarial activity against PYR-resistant Plasmodium falciparum V1/S expressing DHFR N51I/C59R/S108N/I164L quadruple mutant
Plasmodium falciparum [11] = test: Antimalarial activity against PYR-sensitive Plasmodium falciparum TM4/8.2 expressing wild type DHFR incubated for 24 hrs by [3H]-hypoxanthine incorporation assay
physchem = settings: octanol/phosphate buffer, pH 7.4
Description: Lipophilicity, log D of the compound in octanol/phosphate buffer at pH 7.4 at 100 uM incubated for 2 hrs by HPLC analysis

[12] = Cytotoxicity against African green monkey Vero cells assessed as reduction in cell viability incubated for 72 hrs by sulforhodamine B assay
Dihydrofolate reductase = molecular target: T1, Dihydrofolate reductase (Homo sapiens, UniProt P00374); test: Inhibition of human DHFR expressed in Escherichia coli BL21(DE3) pLysS cells assessed as inhibition constant using DHF as substrate measured for 80 sec in presence of NADPH
T1 sequence (P00374 whole entry): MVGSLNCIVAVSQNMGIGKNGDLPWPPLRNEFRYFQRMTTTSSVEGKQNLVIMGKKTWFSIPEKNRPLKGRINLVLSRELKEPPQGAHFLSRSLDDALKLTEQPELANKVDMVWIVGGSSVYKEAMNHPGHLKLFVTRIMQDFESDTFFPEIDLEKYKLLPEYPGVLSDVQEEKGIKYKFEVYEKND

Bifunctional dihydrofolate reductase-thymidylate synthase, sequence (P13922 whole entry): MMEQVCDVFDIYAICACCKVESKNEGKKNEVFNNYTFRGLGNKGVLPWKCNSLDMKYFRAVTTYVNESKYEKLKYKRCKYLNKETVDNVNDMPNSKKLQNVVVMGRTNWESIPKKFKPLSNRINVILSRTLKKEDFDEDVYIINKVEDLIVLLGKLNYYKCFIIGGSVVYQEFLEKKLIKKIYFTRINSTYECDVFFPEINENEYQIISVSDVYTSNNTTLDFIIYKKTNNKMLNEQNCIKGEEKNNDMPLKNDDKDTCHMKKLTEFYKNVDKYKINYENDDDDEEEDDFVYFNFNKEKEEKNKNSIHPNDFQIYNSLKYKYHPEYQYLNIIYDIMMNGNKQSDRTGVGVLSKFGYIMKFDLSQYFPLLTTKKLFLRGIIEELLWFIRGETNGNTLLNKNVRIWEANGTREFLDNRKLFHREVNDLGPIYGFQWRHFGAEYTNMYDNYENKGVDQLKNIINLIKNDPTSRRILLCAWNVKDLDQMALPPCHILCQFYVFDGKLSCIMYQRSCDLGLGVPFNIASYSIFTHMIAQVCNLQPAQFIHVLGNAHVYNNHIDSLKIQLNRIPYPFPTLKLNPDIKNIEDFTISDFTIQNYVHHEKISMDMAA

CCc1nc(N)nc(N)c1OCCCOc1ccccc1CCC(=O)O
microsomal CLint at 1 h (in vitro [1]): < 3 µL/min/mg | IC50 (Plasmodium falciparum [2]): 5 nM | IC50 (Plasmodium falciparum [3]): 56 nM | IC50 [4]: > 100000 nM | Ki [5]: 0.54 nM | microsomal CLint at 1 h (in vitro [6]): < 3 µL/min/mg

CCOC(=O)c1ccc(-c2ccc(OCCCCOc3c(N)nc(N)nc3CC)cc2)cc1
Ki [7]: 0.99 nM | IC50 (Plasmodium falciparum [8]): 22800 nM | Ki [9]: 0.67 nM | selectivity ratio [10]: > 2.2 | IC50 (Plasmodium falciparum [11]): 225 nM | logD at 2 h, 100 µM (physchem): > 2.5 | IC50 at 72 h [12]: > 50000 nM | Ki (Dihydrofolate reductase): > 250000 nM
